Measured values reported in US7514076B2, “Antitumor agents” (priority 1997, dated 2009).

Columns and labels:
[1] = system: S180 solid tumor; experiment: Antitumor effect of PEG-DAO on S180 solid tumor model; assay type: in vivo, ddY mice; settings: 1.5 U i.v. day 7, D-proline 0.5 mmol i.p. 2 and 4 hrs after; FIG. 10
Procedure: S180 cells (2×10^6 cells) were inoculated subcutaneously to ddY mice. Seven days after tumor inoculation, mice were injected i.v. with 1.5 U of native DAO or PEG-DAO followed by D-proline 0.5 mmol, i.p. (2 and 4 hrs after DAO administration).
In the FIG. 10, —●— indicates the result of treated mice by administration of PEG-DAO by […]. injection with D-proline, and —▴— indicates the result of administration of native DAO similarly with D-proline. —◯— indicates the result of control mice without any drug treatment Data are means (n=4-8)±SE (standard error). […] Thus, in vivo activity of PEG-DAO is excellent.

[2] = Enzyme activity of PEG-XO: formation of uric acid from hypoxanthine (absorbance at 290 nm); assay type: biochemical; settings: for XO activity: 50 μM hypoxanthine, 50 mM sodium phosphate buffer pH 7.4, room temperature; for enzyme activity compared with native XO: relative to native XO
Procedure: The enzyme activity was determined by quantifying the formation of uric acid from hypoxanthine by measuring the increase of absorbance at 290 nm, an absorption maximum of uric acid. The initial concentration of the substrate hypoxanthine was 50 μM. The enzyme reaction was carried out in 50 mM sodium phosphate buffer (pH 7.4) at room temperature. One unit of XO activity is defined as the velocity of the formation of 1 μmol of uric acid per min.

[3] = Time course of tumor accumulation of PEG-XO-high (XO activity in tumor homogenate, pterin substrate); assay type: in vivo, ddY mice
Procedure: The time course of the tumor accumulation of PEG-XO-high was examined by measuring the enzyme activity derived from PEG-XO-high in the tumor tissue. Tumor bearing mice were prepared as described above. PEG-XO-high (2 U/ml, 100 μl) was injected intravenously (i.v.) to the mice. After a given period, the tumor tissue was removed as described above. The tumor tissue was then homogenized with three volumes of 20 mM potassium phosphate buffer pH 7.6 which contained 2 mM ethylenediaminetetraacetic acid, 2 mM amidinophenylmethanesulfonyl fluoride, 10 mM dithiothreitol, 0.5 μg/ml of leupeptin. The homogenates were centrifuged at 10,000 g for 20 min, and each supernatant was applied to a FPLC system with a Superose 6 HR 10/30 column similar to the previous section. The enzyme activity of the PEG-XO-high fraction was determined fluorometrically, i.e., the formation of fluorescent isoxanthopterin from pterin was measured with an excitation at 345 nm and an emission at 390 nm, in which hypoxanthine was replaced with pterin as substrate. The quantification was made using the calibration curve of the authentic isoxanthopterin (Aldrich Chemical, Milwaukee, Wis.).

[4] = system: S-180 solid tumor; experiment: Antitumor activity of PEG-XO in vivo with hypoxanthine; design: species or system ddY mice; settings: for suppression of the tumor growth: FIG. 1
Procedure: When the tumors became palpable (5-7 mm in diameter), usually 7 days after implantation, the treatment was resumed.
Hypoxanthine (13.3 mg/kg) was injected intraperitoneally six times, each time more than 6 hrs after the last time, as indicated by asterisks (*) in the FIG. 1 to 3.

[5] = Systemic side effect of PEG-XO-high/hypoxanthine; assay type: in vivo; settings: PEG-XO/hypoxanthine therapy
[6] = Bray and Swann 1972; confirmed by the inventors; cited from earlier work
[7] = 2 administrations 0.6 U/mouse, hypoxanthine 13.3 mg/kg i.p.
[8] = 15 days after tumor inoculation, 2 times 0.6 U/mouse i.v. (day 7, 9), hypoxanthine 13.3 mg/kg i.p. six times

## D-amino acid oxidase [native DAO]
[1]
  suppression of the tumor growth: no significant reduction of the tumor growth

## PEG-XO-high: Xanthine oxidase conjugated with succinimide activated-PEG (Mw 5000), 49% of amino groups modified
[2]
  XO activity: 1.15 U/mg protein
  enzyme activity compared with native XO: 54%
[3]; 0.2 U/mouse i.v., 24 hrs, FIG. 6B
  XO activity in S-180 solid tumor tissue after injection: a new large peak of XO activity was observed
[3]; FIG. 7
  PEG-XO-high activity in tumor over time: increased in a time dependent manner
[4]; [7]
  suppression of the tumor growth: significant (p<0.05) suppression of the tumor growth
[4]; 3 administrations 0.6 U/mouse, hypoxanthine 13.3 mg/kg i.p., FIG. 2
  antitumor activity: remarkable antitumor activity
[4]; 13 days after tumor inoculation, 3 times 0.6 U/mouse i.v. (day 7, 8, 9), hypoxanthine 13.3 mg/kg i.p. 6 times
  weight of tumor: 0.13 ± 0.08 g
[4]; [8]
  weight of tumor: 0.22 ± 0.05 g
[4]; day 13, 3 administrations 0.6 U/mouse, hypoxanthine 13.3 mg/kg i.p.
  inhibition of tumor growth: 77%
[4]; day 15, 2 administrations 0.6 U/mouse, hypoxanthine 13.3 mg/kg i.p.
  inhibition of the tumor growth: 39%

## PEG-XO-low: Xanthine oxidase conjugated with succinimide activated-PEG (Mw 5000), 17% of amino groups modified
[2]
  XO activity: 2.40 U/mg protein
  enzyme activity compared with native XO: 110%

## PEG-XO: Chemically conjugated XO with poly(ethylene glycol); generic term, in vivo work used PEG-XO-high
[5]
  hematotoxicity or liver toxicity: No serious or significant hematotoxicity or liver toxicity

## xanthine oxidase [Native-XO]
[2]
  XO activity: 2.12 U/mg protein
[4]; [7]
  suppression of the tumor growth: no significant reduction of the tumor growth
[4]; [8]
  weight of tumor: 0.31 ± 0.03 g
[6]
  antitumor effect of native XO (literature): insignificant
